Source: ChEMBL document CHEMBL5625178, “The topoisomerase II β -kinase associated with HIV-1 is a potential target for pyridine-bischalcones' anti-HIV-1 activity” (Eur J Med Chem, 2023)
The source made the active and inactive calls. The calls are words filed in the database; no cut-off is given here.

Columns and labels:
[1] = Cytotoxicity against human SUP-T1 cells assessed as reduction in cell viability incubated for 16 hrs by MTT assay; type: toxicity, cell-based
SUP-T1 = test: Inhibition of Topoisomerase II beta serine phosphorylation in human SUP-T1 cells infected with HIV1 93IN101 by Western blot analysis; type: cell-based; settings: dose 5-50 nM
[2] = (§1) Inhibition of HIV-1 topoisomerase II beta kinase phosphorylation in the presence of […][gamma 32P]-ATP incubated for 30 mins by liquid scintillation counter analysis; parameters: species or system Human immunodeficiency virus 1
[3] = test system: Human immunodeficiency virus 1; test: Antiviral activity against HIV1 93IN101 infected in human SUP-T1 cells assessed as suppression of proviral DNA synthesis at IC50 concentration incubated for 5 hrs by PCR analysis; type: functional, organism-based
[4] = test system: Human immunodeficiency virus 1; test: Antiviral activity against HIV1 infected in human SUP-T1 cells assessed as inhibition of viral replication incubated for 5 hrs by sandwich ELISA method; type: functional, organism-based
[5] = test system: Human immunodeficiency virus 1; test: as §1; settings: dose 0.25-600 pM

Compound	CC50 at 16 h [1] [nM]	inhibition (SUP-T1)	IC50 [2] [nM]	Activity [3]	Activity [4]	inhibition [5]
C[n+]1ccccc1/C=C1\CCC/C(=C\c2cccc[n+]2C)C1=O	2040	Dose-Dependent Effect	0.14	Active	Dose-Dependent Effect	–
O=C1/C(=C/c2ccccn2)CCC/C1=C\c1ccccn1	920	–	0.55	–	Dose-Dependent Effect	–
O=C1/C(=C/c2ccncc2)CCC/C1=C\c1ccncc1	820	–	0.44	–	Dose-Dependent Effect	Dose-Dependent Effect
c1ccc(-c2cccnc2)cc1	1500	–	–	–	–	Dose-Dependent Effect
O=C1/C(=C/c2cccnc2)CCC/C1=C\c1cccnc1	960	–	0.32	–	Dose-Dependent Effect	–
Cc1cn([C@H]2C[C@H](N=[N+]=[N-])[C@@H](CO)O2)c(=O)[nH]c1=O	–	–	–	–	Dose-Dependent Effect	–
C[n+]1cccc(/C=C2\CCC/C(=C\c3ccc[n+](C)c3)C2=O)c1	2120	Dose-Dependent Effect	0.1	Active	Dose-Dependent Effect	–
C[n+]1ccc(/C=C2\CCC/C(=C\c3cc[n+](C)cc3)C2=O)cc1	2020	Dose-Dependent Effect	0.15	Active	Dose-Dependent Effect	–
